Measured values as given in patent US20260125375A1 (Pfizer Inc., priority 2022, published 2026).
Like-named read-outs stand apart in the source and are kept apart here.

Key:
WT CBL-B (36-427) = biological target: T1, WT CBL-B (36-427) (Homo sapiens, UniProt Q13191); assay: Surface Plasmon Resonance (SPR) assay, binding affinity and kinetics, CBL-B; conditions: SPR at 10° C., biotinylated WT CBL-B (36-427) on streptavidin chip; geometric mean; read-out: CBL-B SPR Kd (nM) GMean
T1 construct: N-terminal biotinylated WT CBL-B (36-427) and C-CBL (46-435) were captured on a streptavidin (SA) coated sensor chip
How it was run: (§1)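 SPR kinetics at 10° C, run either single-cycle (0.001–1 μM, 3-fold, 6 points, 120 s on, >5400 s off) or multi-cycle (10 points, 2-fold, top 10 or 100 μM, 90 s on). Proteins were N-biotinylated CBL-B (36-427) and C-CBL (46-435) on SA surfaces, in pH 7.2 HEPES, 2% DMSO.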

C-CBL (46-435) = biological target: T2, C-CBL (46-435) (Homo sapiens, UniProt P22681); assay: Surface Plasmon Resonance (SPR) assay, binding affinity and kinetics, C-CBL; conditions: SPR at 10° C., biotinylated C-CBL (46-435) on streptavidin chip; geometric mean; read-out: C-CBL SPR Kd (nM) GMean
T2 construct: N-terminal biotinylated WT CBL-B (36-427) and C-CBL (46-435) were captured on a streptavidin (SA) coated sensor chip
T2 sequence (P22681 46-435): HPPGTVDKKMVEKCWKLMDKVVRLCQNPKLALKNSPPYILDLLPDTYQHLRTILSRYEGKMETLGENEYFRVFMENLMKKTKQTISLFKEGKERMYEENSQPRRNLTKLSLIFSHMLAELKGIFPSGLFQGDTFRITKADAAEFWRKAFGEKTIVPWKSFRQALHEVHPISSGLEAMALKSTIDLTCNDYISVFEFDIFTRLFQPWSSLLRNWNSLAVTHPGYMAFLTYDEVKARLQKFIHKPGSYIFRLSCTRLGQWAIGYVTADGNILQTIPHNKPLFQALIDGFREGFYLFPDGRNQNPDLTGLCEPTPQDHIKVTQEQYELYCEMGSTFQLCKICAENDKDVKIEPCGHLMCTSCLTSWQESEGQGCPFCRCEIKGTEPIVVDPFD
How it was run: as §1

CBL-B = biological target: T3, CBL-B (Homo sapiens, UniProt Q13191); assay: Jurkat HiBit-IL2 assay (c-CBL KO), reporter cell line expressing CBL-B only; assay type: cell-based; conditions: geometric mean, read-out: C-CBL KO EC50 (nM) GMean
T3 construct: endogenous in cells; host or cells: Jurkat HiBit-IL2 reporter cells, C-CBL knocked out by CRISPR
How it was run: (§2)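 IL-2 secretion was measured by HiBiT luminescence after 1 h compound exposure (0.1% DMSO) and 4 h TCR/CD28 stimulation (final anti-CD3 1 μg/ml, anti-CD28 2 μg/ml, 37 °C) of Jurkat reporters lacking c-CBL or CBL-B. EC50 came from fold-of-effect versus stimulated-only cells, as geometric means across tests.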

C-CBL = biological target: T4, C-CBL (Homo sapiens, UniProt P22681); assay: Jurkat HiBit-IL2 assay (CBL-B KO), reporter cell line expressing C-CBL only; assay type: cell-based; conditions: geometric mean, read-out: CBL-B KO EC50 (nM) GMean
T4 construct: endogenous in cells; host or cells: Jurkat HiBit-IL2 reporter cells, CBL-B knocked out by CRISPR
How it was run: as §2

[1] = c-CBL KO (CBL-B only), anti-CD3/anti-CD28 stimulation 4 hours, Table 16a
[2] = CBL-B KO (C-CBL only), anti-CD3/anti-CD28 stimulation 4 hours, Table 16a
[3] = C-CBL KO (expressing CBL-B only), Table 16b (further repetition)
[4] = CBL-B KO (expressing C-CBL only), Table 16b (further repetition)

T1 sequence (Q13191 36-427): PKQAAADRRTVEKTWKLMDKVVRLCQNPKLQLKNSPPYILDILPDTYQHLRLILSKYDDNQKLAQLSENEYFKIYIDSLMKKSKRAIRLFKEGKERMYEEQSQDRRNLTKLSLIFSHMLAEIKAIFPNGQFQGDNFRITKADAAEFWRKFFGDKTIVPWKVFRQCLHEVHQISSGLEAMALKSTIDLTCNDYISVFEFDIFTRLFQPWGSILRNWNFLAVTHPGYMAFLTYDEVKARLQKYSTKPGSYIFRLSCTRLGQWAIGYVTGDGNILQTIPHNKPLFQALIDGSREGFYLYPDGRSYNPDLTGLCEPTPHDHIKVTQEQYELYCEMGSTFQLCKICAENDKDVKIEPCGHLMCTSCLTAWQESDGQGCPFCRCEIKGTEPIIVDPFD
T3 sequence (Q13191 whole entry): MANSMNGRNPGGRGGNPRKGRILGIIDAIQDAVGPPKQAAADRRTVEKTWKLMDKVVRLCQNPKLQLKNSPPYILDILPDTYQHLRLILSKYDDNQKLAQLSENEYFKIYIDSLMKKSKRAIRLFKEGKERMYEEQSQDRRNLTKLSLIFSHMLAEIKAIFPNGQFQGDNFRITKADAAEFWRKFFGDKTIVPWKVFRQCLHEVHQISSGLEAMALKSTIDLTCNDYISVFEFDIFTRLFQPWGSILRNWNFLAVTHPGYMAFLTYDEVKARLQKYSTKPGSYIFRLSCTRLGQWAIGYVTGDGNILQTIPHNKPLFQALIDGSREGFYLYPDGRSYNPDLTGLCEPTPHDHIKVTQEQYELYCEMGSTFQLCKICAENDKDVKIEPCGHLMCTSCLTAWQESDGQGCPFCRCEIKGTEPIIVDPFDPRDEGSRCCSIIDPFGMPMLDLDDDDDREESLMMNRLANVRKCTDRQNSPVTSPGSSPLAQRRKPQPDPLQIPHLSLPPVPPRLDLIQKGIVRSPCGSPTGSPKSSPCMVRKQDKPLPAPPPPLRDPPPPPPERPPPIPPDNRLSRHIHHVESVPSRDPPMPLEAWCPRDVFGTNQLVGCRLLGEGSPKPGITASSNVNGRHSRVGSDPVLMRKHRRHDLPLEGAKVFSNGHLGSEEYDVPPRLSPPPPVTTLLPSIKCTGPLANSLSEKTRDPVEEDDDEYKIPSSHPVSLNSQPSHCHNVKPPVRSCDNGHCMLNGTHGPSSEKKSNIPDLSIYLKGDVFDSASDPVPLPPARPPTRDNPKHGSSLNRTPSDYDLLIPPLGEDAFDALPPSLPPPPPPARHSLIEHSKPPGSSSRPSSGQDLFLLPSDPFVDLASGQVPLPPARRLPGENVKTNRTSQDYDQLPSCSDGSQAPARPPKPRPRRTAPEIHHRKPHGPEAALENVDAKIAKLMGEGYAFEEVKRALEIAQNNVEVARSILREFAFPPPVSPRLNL

Row | Structure (SMILES) | Kd (WT CBL-B (36-427)) [nM] | Kd (C-CBL (46-435)) [nM] | EC50 (CBL-B; [1]) [nM] | EC50 (C-CBL; [2]) [nM] | EC50 (CBL-B; [3]) [nM] | EC50 (C-CBL; [4]) [nM]
1 | C[C@H](N[C@H]1CCOC1)c1nc(C(F)(F)F)cc2c(-c3cccc([C@H](c4nncn4C)C4CCC4)c3)n[nH]c12 (single isomer, unassigned) [Example C2] | 2.5 | 38.8 | 54 | 641 | – | –
2 | C[C@@H](N[C@H]1CCOC1)c1nc(C(F)(F)F)cc2c(-c3cccc([C@H](c4nncn4C)C4CCC4)c3)n[nH]c12 (single isomer, unassigned) [Example C3] | 5.6 | 80.7 | > 159 | 639 | – | –
3 | C[C@H](NC1CCCC1)c1nc(C(F)(F)F)cc2c(-c3cccc([C@H](c4nncn4C)C4CCC4)c3)n[nH]c12 (single isomer, unassigned) [Example C10] | 11.5 | 189 | 233 | > 2310 | – | –
4 | C[C@@H](NC1CCCC1)c1nc(C(F)(F)F)cc2c(-c3cccc([C@H](c4nncn4C)C4CCC4)c3)n[nH]c12 (single isomer, unassigned) [Example C11] | 0.9 | 6.1 | 5 | 46 | 6 | 32
5 | C[C@H](N[C@H]1CCC(F)(F)C1)c1nc(C(F)(F)F)cc2c(-c3cccc(C4(Cc5nncn5C)COC4)c3)n[nH]c12 (single isomer, unassigned) [Example C12] | 0.8 | 1.8 | 4 | 25 | 8 | 16
6 | C[C@@H](N[C@H]1CCC(F)(F)C1)c1nc(C(F)(F)F)cc2c(-c3cccc(C4(Cc5nncn5C)COC4)c3)n[nH]c12 (single isomer, unassigned) [Example C13] | 2.8 | 11.9 | 16 | 63 | – | –
7 | C[C@@H](NC1CCCC1)c1nc(C(F)(F)F)cc2c(-c3cccc(C4(Cc5nncn5C)COC4)c3)n[nH]c12 (single isomer, unassigned) [Example C15] | 5.6 | 33.9 | 43 | 229 | – | –
8 | C[C@H](N[C@@H]1CCC(F)(F)C1)c1nc(C(F)(F)F)cc2c(-c3cccc(C4(Cc5nncn5C)COC4)c3)n[nH]c12 (single isomer, unassigned) [Example C17] | 1.8 | 28.3 | 33 | 196 | – | –
9 | C[C@@H](N[C@@H]1CCC(F)(F)C1)c1nc(C(F)(F)F)cc2c(-c3cccc(C4(Cc5nncn5C)COC4)c3)n[nH]c12 (single isomer, unassigned) [Example C18] | 0.7 | 6.2 | 17 | 178 | 19 | 49
10 | CC(c1nc(C(F)(F)F)cc2c(-c3cccc(C4(Cc5nncn5C)COC4)c3)n[nH]c12)N1CCC[C@H](C)C1 (single isomer, unassigned) [Example C19] | 2.4 | 51.3 | 56 | 439 | – | –
11 | CC(c1nc(C(F)(F)F)cc2c(-c3cccc(C4(Cc5nncn5C)COC4)c3)n[nH]c12)N1CCC[C@H](C)C1 (single isomer, unassigned) [Example C20] | 1.2 | 11.3 | 12 | 78 | 15 | 56
12 | CC(c1nc(C(F)(F)F)cc2c(-c3cccc(C4(Cc5nncn5C)COC4)c3)n[nH]c12)N1CCCCC1 (single isomer, unassigned) [Example C21, 3-(3-{3-[(4-methyl-4H-1,2,4-triazol-3-yl)methyl]oxetan-3-yl}phenyl)-7-[(1ξ)-1-(piperidin-1-yl)ethyl]-5-(trifluoromethyl)-1H-pyrazolo[3,4-c]pyridine] | 13.7 | 108 | 152 | 851 | – | –
13 | CC(c1nc(C(F)(F)F)cc2c(-c3cccc(C4(Cc5nncn5C)COC4)c3)n[nH]c12)N1CCCCC1 (single isomer, unassigned) [Example C22, 3-(3-{3-[(4-methyl-4H-1,2,4-triazol-3-yl)methyl]oxetan-3-yl}phenyl)-7-[(1ξ)-1-(piperidin-1-yl)ethyl]-5-(trifluoromethyl)-1H-pyrazolo[3,4-c]pyridine] | 8.2 | 116 | 120 | 942 | – | –
14 | CC(c1nc(C(F)(F)F)cc2c(-c3cccc(C4(Cc5nncn5C)COC4)c3)n[nH]c12)N1CCOCC1 (single isomer, unassigned) [Example C23, 3-(3-{3-[(4-methyl-4H-1,2,4-triazol-3-yl)methyl]oxetan-3-yl}phenyl)-7-[(1ξ)-1-(morpholin-4-yl)ethyl]-5-(trifluoromethyl)-1H-pyrazolo[3,4-c]pyridine] | 5.1 | 29.4 | 152 | 800 | – | –
15 | CC(c1nc(C(F)(F)F)cc2c(-c3cccc(C4(Cc5nncn5C)COC4)c3)n[nH]c12)N1CCOCC1 (single isomer, unassigned) [Example C24, 3-(3-{3-[(4-methyl-4H-1,2,4-triazol-3-yl)methyl]oxetan-3-yl}phenyl)-7-[(1ξ)-1-(morpholin-4-yl)ethyl]-5-(trifluoromethyl)-1H-pyrazolo[3,4-c]pyridine] | 16.9 | 146 | 434 | 2970 | – | –
16 | CC(c1nc(C(F)(F)F)cc2c(-c3cccc(C4(Cc5nncn5C)COC4)c3)n[nH]c12)N1C[C@@H](F)[C@H](F)C1 (single isomer, unassigned) [Example C25] | 1.8 | 31.8 | 49 | 252 | – | –
17 | C[C@H](c1nc(C(F)(F)F)cc2c(-c3cccc(C4(Cc5nncn5C)COC4)c3)n[nH]c12)N1C[C@@H](F)[C@H](F)C1 (single isomer, unassigned) [Example C26] | 13.2 | 183 | 172 | 1850 | – | –
18 | CC(NC1CNC1)c1nc(C(F)(F)F)cc2c(-c3cccc(C4(Cc5nncn5C)COC4)c3)n[nH]c12 (single isomer, unassigned) [Example C27, N-{(1ξ)-1-[3-(3-{3-[(4-methyl-4H-1,2,4-triazol-3-yl)methyl]oxetan-3-yl}phenyl)-5-(trifluoromethyl)-1H-pyrazolo[3,4-c]pyridin-7-yl]ethyl}azetidin-3-amine] | 8.7 | 71 | > 1290 | > 4300 | – | –
19 | CC(NC1CNC1)c1nc(C(F)(F)F)cc2c(-c3cccc(C4(Cc5nncn5C)COC4)c3)n[nH]c12 (single isomer, unassigned) [Example C28, N-{(1ξ)-1-[3-(3-{3-[(4-methyl-4H-1,2,4-triazol-3-yl)methyl]oxetan-3-yl}phenyl)-5-(trifluoromethyl)-1H-pyrazolo[3,4-c]pyridin-7-yl]ethyl}azetidin-3-amine] | 17.3 | 125 | > 2070 | > 5190 | – | –
20 | CC1CN(Cc2nc(C(F)(F)F)cc3c(-c4cccc(C5(Cc6nncn6C)COC5)c4)n[nH]c23)CCC1(F)F (single isomer, unassigned) [Example C31, 7-{[(3ξ)-4,4-difluoro-3-methylpiperidin-1-yl]methyl}-3-(3-{3-[(4-methyl-4H-1,2,4-triazol-3-yl)methyl]oxetan-3-yl}phenyl)-5-(trifluoromethyl)-1H-pyrazolo[3,4-c]pyridine] | 4.7 | 133 | 166 | 1370 | – | –
21 | CC1CN(Cc2nc(C(F)(F)F)cc3c(-c4cccc(C5(Cc6nncn6C)COC5)c4)n[nH]c23)CCC1(F)F (single isomer, unassigned) [Example C32, 7-{[(3ξ)-4,4-difluoro-3-methylpiperidin-1-yl]methyl}-3-(3-{3-[(4-methyl-4H-1,2,4-triazol-3-yl)methyl]oxetan-3-yl}phenyl)-5-(trifluoromethyl)-1H-pyrazolo[3,4-c]pyridine] | 0.8 | 42.6 | 83 | 1190 | 49 | 110
